Data taken from patent publication EP3838286B1, “ANTIMICROBIAL PEPTIDE FROM POLISTES GALLICUS VENOM AND ITS ANALOGS” (Latoxan, priority 2019, dated 2021).
Values after ≈ are worked out from the molar mass of the structure shown.

Legend:
S. aureus = test: Antimicrobial tests (MIC, two-fold serial dilution); type: cell-based, Staphylococcus aureus (ATCC 6538P); conditions: Staphylococcus aureus; Table 3; n=4
P. aeruginosa [1] = test: Antimicrobial tests (MIC/MBC, two-fold serial dilution); type: cell-based, Pseudomonas aeruginosa (ATCC 9037); conditions: Pseudomonas aeruginosa; Table 3; n=4
E. coli = test: Antimicrobial tests (MIC, two-fold serial dilution); type: cell-based, E. coli (ATCC 8739); conditions: Escherichia coli; Table 3; n=4
B. subtilis = test: as above; type: cell-based, Bacillus subtilis (ATCC 6633); conditions: Bacillus subtilis; Table 3; n=4
MiaPaCa-2 = test: Antitumor / antiproliferative activity (resazurin); type: cell-based; conditions: Homo sapiens, MIA PaCa-2; pancreas cancer cells; 5,000 cells/well; 48 h; read-out: IC50 antiproliferative effect MiaPaCa-2
Description: (§1) Human cancer cell lines (Mia PaCa-2 (CRL-1420), PC-3 (CRL-1435), MDA-MB-231 (HTB-26)) and normal lung fibrobasts (BEAS-2B (ATCC CRL-9609) and IMR-90 (ATCC CCL-186)) were obtained from American Type Culture Collection (ATCC). HUVEC cells were obtained from Sigma Aldrich and were grown in defined all-in-one ready to use endothelial cell growth medium (Sigma Aldrich). Other cells were cultured in Dulbecco's modified Eagle's medium (DMEM, Gibco Life Technologies) supplemented with 10% heat-inactivated fetal calf serum (FCS, Lonza) at 37 °C in an incubator containing 5% CO2. Cells were sub-cultured in new media every 3-4 days. Antiproliferative / antitumor effects of the peptides were measured as previously described (Borie et al., Eur J Med Chem. 2018;148:306-313). Briefly, cells were detached from growing flask using trypsin, cells were counted and seeded in 96 well-plates in the growth media at an initial cell density of 5000 cells/well. Cells were left for 4 h to attach to the wells. Cells were then treated with increasing concentrations of peptides diluted in culture media. After 48 h incubation at 37 °C in a 5% CO2 incubator, wells were emptied and cell number was evaluated using Resazurin based in vitro toxicity assay kit (from Sigma-Aldrich) following manufacturer's instructions. Briefly, Resazurin stock solution was diluted 1:10 in sterile PBS containing calcium and magnesium (PBS, pH 7.4) and empty wells were filled with 100 µL of the diluted solution. After 4 h incubation at 37 °C, fluorescence intensity was measured using microplate reader (Synergy Mx, Biotek) with an excitation wavelength of 530 nm and an emission wavelength of 590 nm. The fluorescence values were normalized by the controls (buffer treated cells) and expressed as per-cent viability. […]

PC-3 = test: Antitumor / antiproliferative activity (resazurin); type: cell-based; conditions: Homo sapiens, prostate cancer cells, 5,000 cells/well, 48 h, read-out: IC50 antiproliferative effect PC-3
Description: as §1

MDA-MB-231 = test: Antitumor / antiproliferative activity (resazurin); type: cell-based; conditions: Homo sapiens, breast cancer cells, 5,000 cells/well, 48 h, read-out: IC50 antiproliferative effect MDA-MB-231
Description: as §1

P. aeruginosa [2] = test: Selection for resistant bacteria (serial passaging); type: cell-based; conditions: daily exposure at sub-MIC levels, 30 days; antibiotics: after 10 days
Description: To evaluate if populations of AMP-resistant bacteria could be selected, cultures were continuously exposed to LTX-gallicune-1 (I1N1) and LTX-gallicune-2(R1W8) peptides for a duration of 30 days, as previously described (Oyama et al., 2017 Biofilms Microbiomes, Dec 1;3:33). Briefly, broth microdilution susceptibility testing was performed using a standard doubling-dilution series of gallicune peptides concentrations on day 1. Following incubation of the cultures for 24 h, and determination of the MIC, the well that contained the highest concentration of AMPs permitting growth was diluted 1: 1000 in MH and used to provide the inoculum for the next MIC assay; this process was repeated daily for 30 days.

With CC1(C)S[C@@H]2[C@H](NC(=O)[C@H](N)c3ccc(O)cc3)C(=O)N2[C@H]1C(=O)O [Amoxicilline] the MIC (S. aureus) was 0.9 µM (≈ 0.329 µg/mL), the MIC (P. aeruginosa [1]) was > 100 µM and the MIC (E. coli) was 9 µM (≈ 3.29 µg/mL). It also gave an MIC (B. subtilis) of 0.45 to 0.9 µM (≈ 0.164 to 0.329 µg/mL).
COc1cccc2c1C(=O)c1c(O)c3c(c(O)c1C2=O)C[C@@](O)(C(=O)CO)C[C@@H]3O[C@H]1C[C@H](N)[C@H](O)[C@H](C)O1 [Doxo, Doxorubicine] was tested, and the IC50 (MiaPaCa-2) was 190 nM, the IC50 (PC-3) was 315 nM and the IC50 (MDA-MB-231) was 79.8 nM.
In the case of CO/N=C1\CN(c2nc3c(cc2F)c(=O)c(C(=O)O)cn3C2CC2)CC1CN (centres unmarked) [Gemifloxacin], the “change of MIC against P. aeruginosa on serial passaging (resistance acquisition)” value (P. aeruginosa [2]) is reported as “increasing”.
